Measured values as given in EP0037318A1, “Composition, particularly useful in the treatment and prevention of dandruff and containing metallic derivatives of thiobenzoic acid” (PIERRE FABRE S.A., priority 1980, dated 1981).
Read-outs that look alike come from different tables or passages of the source.

Tests used:
Zinc content = format: physicochemical
[1] = Anti-oxidant power: daily peroxide index (Ip) of linoleic acid containing the suspended agent; conditions: for INDICES DE PEROXYDES: agent at 1 % suspended in linoleic acid, stored at 60°C
Protocol: La mesure du pouvoir anti-oxydant est effectuée selon la méthode décrite par CARNAT et POURRAT (Ann. Pharm. Fr. 1979, 37, n° 3-4, p. 119-124) en remplaçant l'huile de lin par de l'acide linoléique.
L'oxydation de l'acide linoléique est suivie chaque jour par une mesure de l'indice de peroxydes Ip.
Dans un flacon contenant l'acide linoléique on ajoute 15 ml de CHC13, 20 ml d'acide acétique RP puis 1 ml de solution aqueuse saturée de KI. On agite 1 mn et on laisse reposer le flacon 5 mn à l'obscurité. Après avoir ajouté 100 ml d'eau on dose l'iode libéré par du thiosulfate de sodium 0,01 N. [formula] v = volume de Na2S2O3 versé dans le dosage v = volume de Na2S2O3 versé dans l'essai à blanc Ip est exprimé en mmoles d'oxygène/kg d'acide gras.
Remarque : v doit être voisin de O car un Ip élevé révèle une oxydation du KI par l'oxygène de l'air ou dissous dans les réactifs. Pour éviter cela, les réactifs et le solvant devront être débarrassés de l'oxygène dissous par barbotage de gaz inerte, ceci afin d'obtenir des résultats comparables.
Les différents agents anti-oxydants étudiés sont mis en suspension dans l'acide linoléique et les mélanges ainsi obtenus sont stockés à l'étuve (60°C).
Tous les jours un Ip est effectué sur les mélanges suivants : • 1 - acide thiosalicylique à 1 % • 2 - pyridine thione Zn à 1 % • 3 - thiosalicylate de Zn à 1 %.

[2] = Delay of auto-oxidation (Waginaire conditions): daily Ip in interesterified oil Labrafil M 1944 CS; conditions: rank order by delay of the auto-oxidation maximum; dose 1/10 000 in Labrafil M 1944 CS, Ip daily for 90 days at 60°C
Excerpt: (Bulletin technique SFPA n° 60) l'évolution des peroxydes se fait en trois phases : • 1) évolution lente de l'Ip (non observée avec l'acide linoléique) • 2) évolution rapide de l'Ip (deux premiers jours) • 3) stabilisation et décroissance de l'Ip.
Cette dernière période apparaît après plusieurs semaines. L'auteur attribue ce phénomène à la formation de groupements carbonyles (aldéhydes et cétones).
On obtient un profil de courbe Ip = f(t) comportant un maximum d'auto-oxydation net.
L'anti-oxydant est d'autant plus efficace que le maximum d'auto-oxydation est-retardé.

[3] = Partition coefficients at 20°C; format: physicochemical
Protocol: 2°) Détermination des coefficients de partage à 20°C

[4] = water
[5] = Maximum solubility in water at 20°C, by spectroscopy

Molecule | % Zinc (Zinc content) | INDICES DE PEROXYDES ([1]; 0 (start)) | INDICES DE PEROXYDES ([1]; 1 jour) | INDICES DE PEROXYDES ([1]; 2 jours) | INDICES DE PEROXYDES ([1]; 3 jours) | INDICES DE PEROXYDES ([1]; 4 jours) | activité anti-oxydante ([1]; in words, compared with pyrithione zinc) | Pouvoir anti-oxydant [2] | Valeurs de P ([3]; CHCl3 - eau) | Valeurs de P ([3]; Octanol-eau) | Solubilité maximum dans l'eau [4] | Solubilité maximum dans l'eau [5] [mg % ml]
ortho thiocrésotinate de zinc [Exemple 7] | 28,1% | – | – | – | – | – | – | – | – | – | – | –
thiosalicylate de zinc [Exemple 1] | 30% | 0,6 millimoles D2 pour 1000 g d'acide linoléique | 45,5 millimoles D2 pour 1000 g d'acide linoléique | 84,4 millimoles D2 pour 1000 g d'acide linoléique | 99,5 millimoles D2 pour 1000 g d'acide linoléique | 103,9 millimoles D2 pour 1000 g d'acide linoléique | excellente | thiosalicylate de Zinc > pyrithione zinc> acide thiosalicylique | 0,05 | 0,21 | 1,80 mg % ml | –
[O-][n+]1ccccc1[S-].[O-][n+]1ccccc1[S-].[Zn+2] [pyrithione zinc] | 20,5% | 0,7 millimoles D2 pour 1000 g d'acide linoléique | 98 millimoles D2 pour 1000 g d'acide linoléique | 174,1 millimoles D2 pour 1000 g d'acide linoléique | 177,6 millimoles D2 pour 1000 g d'acide linoléique | 183,7 millimoles D2 pour 1000 g d'acide linoléique | – | thiosalicylate de Zinc > pyrithione zinc> acide thiosalicylique | 0,30 | 0,64 | – | 2
méthoxy-4-thiosalicylate de zinc [Exemple 8] | 26,3% | – | – | – | – | – | – | – | – | – | – | –
chloro-5-thiosalicylate de zinc [Exemple 9] | 25,7% | – | – | – | – | – | – | – | – | – | – | –
O=C(O)c1ccccc1S [acide thiosalicylique] | – | 0,8 millimoles D2 pour 1000 g d'acide linoléique | 117,2 millimoles D2 pour 1000 g d'acide linoléique | 191,9 millimoles D2 pour 1000 g d'acide linoléique | 202,7 millimoles D2 pour 1000 g d'acide linoléique | 204,2 millimoles D2 pour 1000 g d'acide linoléique | – | thiosalicylate de Zinc > pyrithione zinc> acide thiosalicylique | – | – | – | –
